Literature values in publication PMC11728000, “Antitumor Activity and Multi-Target Mechanism of Phenolic Schiff Bases Bearing Methanesulfonamide Fragments: Cell Cycle Analysis and a Molecular Modeling Study” (International Journal of Molecular Sciences, 2024).

Experiments:
[1] = test system: Breast Cancer subpanel tumor cell lines; conditions: cited from earlier work; for GI50: read-out: GI50, subpanel average, ref https://dtp.cancer.gov/dtpstandard/dwindex/index.jsp; for TGI, subpanel average: ref https://dtp.cancer.gov/dtpstandard/dwindex/index.jsp
[2] = test system: NCI-H460; design: method as in https://dtp.cancer.gov/dtpstandard/dwindex/index.jsp; conditions: ref https://dtp.cancer.gov/dtpstandard/dwindex/index.jsp; cited from earlier work
[3] = test system: PC-3; design: method as in https://dtp.cancer.gov/dtpstandard/dwindex/index.jsp; conditions: ref https://dtp.cancer.gov/dtpstandard/dwindex/index.jsp; cited from earlier work
[4] = test system: Ovarian Cancer subpanel tumor cell lines; conditions: cited from earlier work; for GI50: read-out: GI50, subpanel average, ref https://dtp.cancer.gov/dtpstandard/dwindex/index.jsp; for CC50: read-out: LC50, subpanel average, ref https://dtp.cancer.gov/dtpstandard/dwindex/index.jsp; for TGI, subpanel average: ref https://dtp.cancer.gov/dtpstandard/dwindex/index.jsp
[5] = test system: DU-145; design: method as in https://dtp.cancer.gov/dtpstandard/dwindex/index.jsp; conditions: ref https://dtp.cancer.gov/dtpstandard/dwindex/index.jsp; cited from earlier work
[6] = test system: OVCAR-4; design: method as in https://dtp.cancer.gov/dtpstandard/dwindex/index.jsp; conditions: ref https://dtp.cancer.gov/dtpstandard/dwindex/index.jsp; cited from earlier work
[7] = test system: CCRF-CEM; design: method as in https://dtp.cancer.gov/dtpstandard/dwindex/index.jsp; conditions: ref https://dtp.cancer.gov/dtpstandard/dwindex/index.jsp; cited from earlier work
[8] = test system: MALME-3M; design: method as in https://dtp.cancer.gov/dtpstandard/dwindex/index.jsp; conditions: ref https://dtp.cancer.gov/dtpstandard/dwindex/index.jsp; cited from earlier work
[9] = test system: ACHN; design: method as in https://dtp.cancer.gov/dtpstandard/dwindex/index.jsp; conditions: ref https://dtp.cancer.gov/dtpstandard/dwindex/index.jsp; cited from earlier work
[10] = test system: A498; design: method as in https://dtp.cancer.gov/dtpstandard/dwindex/index.jsp; conditions: ref https://dtp.cancer.gov/dtpstandard/dwindex/index.jsp; cited from earlier work
[11] = test system: TK-10; design: method as in https://dtp.cancer.gov/dtpstandard/dwindex/index.jsp; conditions: ref https://dtp.cancer.gov/dtpstandard/dwindex/index.jsp; cited from earlier work
[12] = test system: SNB-75; design: method as in https://dtp.cancer.gov/dtpstandard/dwindex/index.jsp; conditions: ref https://dtp.cancer.gov/dtpstandard/dwindex/index.jsp; cited from earlier work
[13] = test system: RXF 393; design: method as in https://dtp.cancer.gov/dtpstandard/dwindex/index.jsp; conditions: ref https://dtp.cancer.gov/dtpstandard/dwindex/index.jsp; cited from earlier work
[14] = test system: M14; design: method as in https://dtp.cancer.gov/dtpstandard/dwindex/index.jsp; conditions: ref https://dtp.cancer.gov/dtpstandard/dwindex/index.jsp; cited from earlier work
[15] = test system: SF-295; design: method as in https://dtp.cancer.gov/dtpstandard/dwindex/index.jsp; conditions: ref https://dtp.cancer.gov/dtpstandard/dwindex/index.jsp; cited from earlier work
[16] = test system: Melanoma subpanel tumor cell lines; conditions: cited from earlier work; for GI50: read-out: GI50, subpanel average, ref https://dtp.cancer.gov/dtpstandard/dwindex/index.jsp; for CC50: read-out: LC50, subpanel average, ref https://dtp.cancer.gov/dtpstandard/dwindex/index.jsp; for TGI, subpanel average: ref https://dtp.cancer.gov/dtpstandard/dwindex/index.jsp
[17] = test system: LOX IMVI; design: method as in https://dtp.cancer.gov/dtpstandard/dwindex/index.jsp; conditions: ref https://dtp.cancer.gov/dtpstandard/dwindex/index.jsp; cited from earlier work
[18] = test system: NCI-H322M; design: method as in https://dtp.cancer.gov/dtpstandard/dwindex/index.jsp; conditions: ref https://dtp.cancer.gov/dtpstandard/dwindex/index.jsp; cited from earlier work
[19] = test system: SNB-19; design: method as in https://dtp.cancer.gov/dtpstandard/dwindex/index.jsp; conditions: ref https://dtp.cancer.gov/dtpstandard/dwindex/index.jsp; cited from earlier work
[20] = test system: SK-MEL-2; design: method as in https://dtp.cancer.gov/dtpstandard/dwindex/index.jsp; conditions: ref https://dtp.cancer.gov/dtpstandard/dwindex/index.jsp; cited from earlier work
[21] = test system: HOP-62; design: method as in https://dtp.cancer.gov/dtpstandard/dwindex/index.jsp; conditions: ref https://dtp.cancer.gov/dtpstandard/dwindex/index.jsp; cited from earlier work
[22] = test system: SR; design: method as in https://dtp.cancer.gov/dtpstandard/dwindex/index.jsp; conditions: ref https://dtp.cancer.gov/dtpstandard/dwindex/index.jsp; cited from earlier work
[23] = test system: 59 human cancer cell lines; conditions: full panel mean-graph midpoint, ref https://dtp.cancer.gov/dtpstandard/dwindex/index.jsp, cited from earlier work; for GI50: read-out: GI50 MG-MID; for CC50: read-out: LC50 MG-MID
[24] = test system: SW-620; design: method as in https://dtp.cancer.gov/dtpstandard/dwindex/index.jsp; conditions: ref https://dtp.cancer.gov/dtpstandard/dwindex/index.jsp; cited from earlier work
[25] = test system: K-562; design: method as in https://dtp.cancer.gov/dtpstandard/dwindex/index.jsp; conditions: ref https://dtp.cancer.gov/dtpstandard/dwindex/index.jsp; cited from earlier work
[26] = test system: SK-OV-3; design: method as in https://dtp.cancer.gov/dtpstandard/dwindex/index.jsp; conditions: ref https://dtp.cancer.gov/dtpstandard/dwindex/index.jsp; cited from earlier work
[27] = test system: MDA-MB-435; design: method as in https://dtp.cancer.gov/dtpstandard/dwindex/index.jsp; conditions: ref https://dtp.cancer.gov/dtpstandard/dwindex/index.jsp; cited from earlier work
[28] = test system: HS 578T; design: method as in https://dtp.cancer.gov/dtpstandard/dwindex/index.jsp; conditions: ref https://dtp.cancer.gov/dtpstandard/dwindex/index.jsp; cited from earlier work
[29] = test system: SK-MEL-28; design: method as in https://dtp.cancer.gov/dtpstandard/dwindex/index.jsp; conditions: ref https://dtp.cancer.gov/dtpstandard/dwindex/index.jsp; cited from earlier work
[30] = test system: MCF-7; design: method as in https://dtp.cancer.gov/dtpstandard/dwindex/index.jsp; conditions: ref https://dtp.cancer.gov/dtpstandard/dwindex/index.jsp; cited from earlier work
[31] = test system: SF-539; design: method as in https://dtp.cancer.gov/dtpstandard/dwindex/index.jsp; conditions: ref https://dtp.cancer.gov/dtpstandard/dwindex/index.jsp; cited from earlier work
[32] = test system: UO-31; design: method as in https://dtp.cancer.gov/dtpstandard/dwindex/index.jsp; conditions: ref https://dtp.cancer.gov/dtpstandard/dwindex/index.jsp; cited from earlier work
[33] = test system: A549/ATCC; design: method as in https://dtp.cancer.gov/dtpstandard/dwindex/index.jsp; conditions: ref https://dtp.cancer.gov/dtpstandard/dwindex/index.jsp; cited from earlier work
[34] = test system: CNS Cancer subpanel tumor cell lines; conditions: cited from earlier work; for GI50: read-out: GI50, subpanel average, ref https://dtp.cancer.gov/dtpstandard/dwindex/index.jsp; for CC50: read-out: LC50, subpanel average, ref https://dtp.cancer.gov/dtpstandard/dwindex/index.jsp; for TGI, subpanel average: ref https://dtp.cancer.gov/dtpstandard/dwindex/index.jsp
[35] = test system: NCI/ADR-RES; design: method as in https://dtp.cancer.gov/dtpstandard/dwindex/index.jsp; conditions: ref https://dtp.cancer.gov/dtpstandard/dwindex/index.jsp; cited from earlier work
[36] = test system: Renal Cancer subpanel tumor cell lines; conditions: cited from earlier work; for GI50: read-out: GI50, subpanel average, ref https://dtp.cancer.gov/dtpstandard/dwindex/index.jsp; for CC50: read-out: LC50, subpanel average, ref https://dtp.cancer.gov/dtpstandard/dwindex/index.jsp; for TGI, subpanel average: ref https://dtp.cancer.gov/dtpstandard/dwindex/index.jsp
[37] = test system: MOLT-4; design: method as in https://dtp.cancer.gov/dtpstandard/dwindex/index.jsp; conditions: ref https://dtp.cancer.gov/dtpstandard/dwindex/index.jsp; cited from earlier work
[38] = test system: MDA-MB-468; design: method as in https://dtp.cancer.gov/dtpstandard/dwindex/index.jsp; conditions: ref https://dtp.cancer.gov/dtpstandard/dwindex/index.jsp; cited from earlier work

Structure (SMILES): Cc1ccc(-c2cc(C(F)(F)F)nn2-c2ccc(S(N)(=O)=O)cc2)cc1 [Celecoxib, celecoxib]
- GI50 [1]: 17.5 µM
- TGI, subpanel average [1]: 34.89 µM
- GI50 [2]: 15.8 µM
- GI50 [3]: 12.6 µM
- GI50 [4]: 17.1 µM
- CC50 [4]: 65.9 µM
- TGI, subpanel average [4]: 34.20 µM
- GI50 [5]: 15.8 µM
- GI50 [6]: 12.6 µM
- GI50 [7]: 12.6 µM
- GI50 [8]: 19.9 µM
- GI50 [9]: 15.8 µM
- GI50 [10]: 15.8 µM
- GI50 [11]: 19.9 µM
- GI50 [12]: 15.8 µM
- GI50 [13]: 15.8 µM
- GI50 [14]: 63.1 µM
- GI50 [15]: 15.8 µM
- GI50 [16]: 22.5 µM
- CC50 [16]: 64.3 µM
- TGI, subpanel average [16]: 38.49 µM
- GI50 [17]: 19.9 µM
- GI50 [18]: 19.9 µM
- GI50 [19]: 19.9 µM
- GI50 [20]: 15.8 µM
- GI50 [21]: 63.1 µM
- GI50 [22]: 15.8 µM
- TGI MG-MID [23]: 34.0 µM
- GI50 [23]: 17.5 µM
- CC50 [23]: 63.3 µM
- GI50 [24]: 15.8 µM
- GI50 [25]: 10 µM
- GI50 [26]: 19.9 µM
- GI50 [27]: 15.8 µM
- GI50 [28]: 19.9 µM
- GI50 [29]: 15.8 µM
- GI50 [30]: 15.8 µM
- GI50 [31]: 19.9 µM
- GI50 [32]: 15.8 µM
- GI50 [33]: 15.8 µM
- GI50 [34]: 17.2 µM
- CC50 [34]: 58.8 µM
- TGI, subpanel average [34]: 31.62 µM
- GI50 [35]: 15.8 µM
- GI50 [36]: 19.9 µM
- CC50 [36]: 61.2 µM
- TGI, subpanel average [36]: 41.19 µM
- GI50 [37]: 15.8 µM

Structure (SMILES): C#Cc1cccc(Nc2ncnc3cc(OCCOC)c(OCCOC)cc23)c1 [Erlotinib, erlotinib]
- GI50 [1]: 24.7 µM
- CC50 ([1]; read-out: LC50, subpanel average, ref https://dtp.cancer.gov/dtpstandard/dwindex/index.jsp): 96.4 µM
- TGI, subpanel average [1]: 70.53 µM
- GI50 [2]: 6.31 µM
- GI50 [3]: 39.8 µM
- GI50 [4]: 5.52 µM
- CC50 [4]: 97.1 µM
- TGI, subpanel average [4]: 74.41 µM
- GI50 [5]: 1.99 µM
- GI50 [6]: 10 µM
- GI50 [7]: 50.1 µM
- GI50 [8]: 1.58 µM
- GI50 [9]: 0.199 µM
- GI50 [10]: 2.51 µM
- GI50 [11]: 0.251 µM
- GI50 [12]: 12.6 µM
- GI50 [13]: 3.98 µM
- GI50 [14]: 6.31 µM
- GI50 [15]: 15.8 µM
- GI50 [16]: 23.7 µM
- CC50 [16]: 93.3 µM
- TGI, subpanel average [16]: 77.89 µM
- GI50 [17]: 6.31 µM
- GI50 [18]: 0.1 µM
- GI50 [19]: 12.6 µM
- GI50 [20]: 6.31 µM
- GI50 [21]: 15.8 µM
- GI50 [22]: 10 µM
- TGI MG-MID [23]: 66.3 µM
- GI50 [23]: 7.68 µM
- CC50 [23]: 95.6 µM
- GI50 [38]: 0.126 µM
- GI50 [24]: 79.4 µM
- GI50 [25]: 31.6 µM
- GI50 [26]: 0.5 µM
- GI50 [27]: 19.9 µM
- GI50 [28]: 6.31 µM
- GI50 [29]: 50.1 µM
- GI50 [30]: 100 µM
- GI50 [31]: 19.9 µM
- GI50 [32]: 1 µM
- GI50 [33]: 10 µM
- GI50 [34]: 17 µM
- CC50 [34]: > 100 µM
- TGI, subpanel average [34]: 82.11 µM
- GI50 [35]: 7.94 µM
- GI50 [36]: 2.46 µM
- CC50 [36]: 89.2 µM
- TGI, subpanel average [36]: 42.59 µM
- GI50 [37]: 25.1 µM
